Patent US9018175B2 (Takeda GmbH, priority 2009, dated 2015)

Columns and labels:
PDE4B1 = biological target: T1, PDE4B1 (Homo sapiens, UniProt Q07343); assay: Inhibition of PDE4B1 activity (SPA, [3H]cAMP); format: biochemical; conditions: recombinant PDE4B1 expressed in SF21 cells; 0.5 pM [sic] cAMP; values given as bins; read-out: PDE4B1 inhibitory values measured as −logIC50 (converted)
T1 construct: made in house; host or cells: SF21 insect cells (baculovirus; pCR-Bac vector)
Protocol: The PDE4B1 (GB no. L20966) was a gift of Prof. M. Conti (Stanford University, USA). It was amplified from the original plasmid (pCMV5) via PCR with primers Rb18 (5′-[…]-3′) and Rb10 (5′-[…]-3′) and cloned into the pCR-Bac vector (Invitrogen, Groningen, NL).
The recombinant baculovirus was prepared by means of homologous recombination in SF9 insect cells. The expression plasmids were cotransfected with Baculo-Gold DNA (Pharmingen, Hamburg) using a standard protocol (Pharmingen, Hamburg). Wt virus-free recombinant virus supernatants were selected using plaque assay methods. After that, high-titre virus supernatants were prepared by amplifying 3 times. PDE4B1 was expressed in SF21 cells by infecting 2×10^6 cells/ml with an MOI (multiplicity of infection) between 1 and 10 in the serum-free medium Insect Express Sf9-S2 (PAA, Pasching, Austria). The cells were cultured at 28° C. for 48-72 hours, after which they were pelleted for 5-10 min at 1000×g and 4° C.
The SF21 insect cells were resuspended, at a concentration of approx. 10^7 cells/ml, in ice-cold (4° C.) homogenization buffer (20 mM Tris, pH 8.2, containing the following additions: 140 mM NaCl, 3.8 mM KCl, 1 mM EGTA, 1 mM MgCl2, 10 mM e-mercaptoethanol, 2 mM benzamidine, 0.4 mM Pefablock, 10 pM leupeptin, 10 pM pepstatin A, 5 pM trypsin inhibitor) and disrupted by ultrasonication. The homogenate was then centrifuged for 10 min at 1000, g and the supernatant was stored at −80° C. until subsequent use (see below). The protein content was determined by the Bradford method (BioRad, Munich) using BSA as the standard.
PDEB1 activities were measured in a 96-well platform using SPA (scintillation proximity assay) yttrium silicate beads (RPNQ1050 from GE Healthcare). In a first step the PDE activity operates hydrolysis of either [^3H] cAMP (substrate) into [^3H] 5′AMP. In a second step substrate and product are distinguished following addition of SPA yttrium silicate beads. Indeed, in the presence of zinc sulphate the linear [^3H] […] Close proximity of bound [^3H] […] The test volume is 100 pl and contains 20 mM Tris buffer (pH 7.4), 0.1 mg/ml of BSA, 5 mM Mg^2+, […] (including about 50,000 cpm of [3H]cAMP), 1 pl of the respective substance dilution in DMSO and sufficient recombinant PDE (1000, g supernatant, see above) to ensure that 10-20% of the cAMP is converted under the said experimental conditions. […] After a preincubation of 5 min at 37° C., the reaction is started by adding the substrate (cAMP) and the assays are incubated for a further 15 min; after that, they are stopped by adding SPA beads (50 pl). In accordance with the manufacturer's instructions, the SPA beads had previously been resuspended in water, but were then diluted 1:3 (v/v) in water; the diluted solution also contains 3 mM IBMX to ensure a complete PDE activity stop. After the beads have been sedimented (>30 min), the MTP's are analyzed in commercially available luminescence detection devices. The corresponding IC50 values of the compounds for the inhibition of PDE4B1 activity are determined from the concentration-effect curves by means of non-linear regression.

human PDE5 = biological target: T2, human PDE5 (Homo sapiens, UniProt O76074); assay: Inhibition of PDE5 activity (SPA, [3H]cGMP, platelet lysate); format: biochemical; conditions: PDE5 from human platelet lysate; values given as bins; read-out: PDE5A inhibitory values measured as −logIC50 (converted)
T2 construct: from tissue; host or cells: human platelets from fresh donor blood (10,000 g supernatant of sonicated platelets)
Protocol: As a source for human PDE5, platelets are used. For that purpose, 150 ml fresh blood from human donors anticoagulated with citrate [final concentration 0.3% (w/v)] is centrifuged at 200 g for 10 min to obtain the so-called platelet-rich-plasma (PRP) as a supernatant. 1/10 volume of ACD solution (85 mM Na3-citrate, 111 mM D-glucose, 71 mM citric acid, pH 4.4) is added to 9/10 volume of PRP. After centrifugation (1,400 g, 10 min) the cell pellet is resuspended in 3 ml homogenization buffer (NaCl 140 mM, KCl 3.8 mM, EGTA (ethylene glycol tetraacetic acid) 1 mM, MgCl2 1 mM, Tris-HCl 20 mM, beta-mercaptoethanol 1 mM, pH 8.2) plus protease-inhibitor mix giving rise to the final concentrations of 0.5 mM Pefablock (Roche), 10 μM Leupeptin, 5 μM Trypsininhibitor, 2 mM Benzamidin and 10 μM Pepstatin A. The suspension is sonified and thereafter centrifuged for 15 min at 10,000 g. The resulting supernatant (platelet lysate) is used for enzymatic testings.
PDE5 activities were measured in a 96-well platform using SPA (scintillation proximity assay) yttrium silicate beads (RPNQ1050 from GE Healthcare). In a first step the PDE activity operates hydrolysis of either [^3H] cGMP (substrate) into [^3H] 5′GMP. In a second step substrate and product are distinguished following addition of SPA yttrium silicate beads. Indeed, in the presence of zinc sulphate the linear [^3H] […] Close proximity of bound [^3H] […] The test volume is 100 pl and contains 20 mM Tris buffer (pH 7.4), 0.1 mg of BSA (bovine serum albumin)/ml, 5 mM Mg^2+, 1 μM motapizone (PDE3 Inhibitor), 10 nM PDE2 inhibitor 2-(3,4-dimethoxybenzyl)-7-[(1R,2R)-2-hydroxy-1-(2-phenylethyl)propyl]-5-methylimidazo[5,1-f][1,2,4]triazin-4(3H)-one, […] (cyclic guanosine monophosphate) (including about 50,000 cpm of [3H]cGMP as a tracer), 1 pl of the respective compound dilution in dimethylsulfoxide (DMSO) and sufficient PDE5-containing platelet lysat (10,000, g supernatant, see above) to ensure that 10-20 wt % of the cGMP is converted under the said experimental conditions. […] After a preincubation of 5 min at 37° C., the reaction is started by adding the substrate (cGMP) and the assay is incubated for a further 15 min; after that, it is stopped by adding SPA beads (50 pl). In accordance with the manufacturer's instructions, the SPA beads had previously been resuspended in water, but are then diluted 1:3 (v/v) in water; the diluted solution also contains 3 mM […]3-isobutyl-1-methylxanthine (IBMX) to ensure a complete PDE activity stop. After the beads have been sedimented (>30 min), the MTP's are analyzed in commercially available luminescence detection devices. The corresponding IC50 values of the compounds for the inhibition of PDE activity are determined from the concentration-effect curves by means of non-linear regression.

T1 sequence (Q07343 whole entry): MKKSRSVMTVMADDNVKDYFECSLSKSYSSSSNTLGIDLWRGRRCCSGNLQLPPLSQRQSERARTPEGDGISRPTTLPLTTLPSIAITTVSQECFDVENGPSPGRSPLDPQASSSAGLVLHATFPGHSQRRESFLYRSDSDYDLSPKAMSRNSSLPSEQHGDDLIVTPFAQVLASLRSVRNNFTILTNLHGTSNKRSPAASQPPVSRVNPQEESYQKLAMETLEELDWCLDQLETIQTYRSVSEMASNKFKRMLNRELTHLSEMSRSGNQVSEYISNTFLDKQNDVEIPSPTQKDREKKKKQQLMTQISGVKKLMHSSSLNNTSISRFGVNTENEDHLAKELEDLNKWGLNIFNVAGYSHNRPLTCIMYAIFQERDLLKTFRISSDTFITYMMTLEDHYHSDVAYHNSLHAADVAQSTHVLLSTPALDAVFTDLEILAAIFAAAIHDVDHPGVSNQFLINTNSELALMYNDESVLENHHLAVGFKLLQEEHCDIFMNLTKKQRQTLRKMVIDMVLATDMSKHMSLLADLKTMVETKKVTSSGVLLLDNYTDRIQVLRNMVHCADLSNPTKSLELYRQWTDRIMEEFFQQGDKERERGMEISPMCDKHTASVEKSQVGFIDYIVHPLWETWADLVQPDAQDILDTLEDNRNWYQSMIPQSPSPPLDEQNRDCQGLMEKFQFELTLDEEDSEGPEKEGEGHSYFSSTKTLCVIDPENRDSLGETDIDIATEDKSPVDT

Row | Structure (SMILES) | IC50 (PDE4B1) [nM] | IC50 (human PDE5) [nM]
1 | CCOc1cc2c(cc1OC)C(c1ccc(C(=O)N3CCC(n4c(=O)c5sc(-c6ccccc6)cc5n(Cc5cnc(C)s5)c4=O)CC3)cc1)=N[C@@H]1CCSC[C@H]21 [Example 20, 3-[1-({4-[(4aR,10bR)-9-ethoxy-8-methoxy-3,4,4a,10b-tetrahydro-1H-thiopyrano[4,3-c]isoquinolin-6-yl]phenyl}carbonyl)piperidin-4-yl]-1-[(2-methyl-1,3-thiazol-5-yl)methyl]-6-phenylthieno[3,2-d]pyrimidine-2,4(1H,3H)-dione] | 1 to 10 | < 10
2 | CCOc1cc2c(cc1OC)C(c1ccc(C(=O)N3CCC(n4c(=O)c5sc(-c6ccccc6)cc5n(Cc5nc(C)cs5)c4=O)CC3)cc1)=N[C@@H]1CCSC[C@H]21 [Example 13, 3-[1-({4-[(4aR,10bR)-9-ethoxy-8-methoxy-3,4,4a,10b-tetrahydro-1H-thiopyrano[4,3-c]isoquinolin-6-yl]phenyl}carbonyl)piperidin-4-yl]-1-[(4-methyl-1,3-thiazol-2-yl)methyl]-6-phenylthieno[3,2-d]pyrimidine-2,4(1H,3H)-dione] | 1 to 10 | > 100
3 | CCOc1cc2c(cc1OC)C(c1cccc(C(=O)N3CCC(n4c(=O)c5sc(-c6ccccc6)cc5n(Cc5nnn(CC)n5)c4=O)CC3)c1)=N[C@@H]1CCSC[C@H]21 [Example 26, 3-[1-({3-[(4aR,10bR)-9-ethoxy-8-methoxy-3,4,4a,10b-tetrahydro-1H-thiopyrano[4,3-c]isoquinolin-6-yl]phenyl}carbonyl)piperidin-4-yl]-1-[(2-ethyl-2H-tetrazol-5-yl)methyl]-6-phenylthieno[3,2-d]pyrimidine-2,4(1H,3H)-dione] | > 10 | < 10
4 | CCOc1cc2c(cc1OC)C(c1cccc(C(=O)N3CCC(n4c(=O)c5sc(-c6cc(F)ccc6OC)cc5n(Cc5nnn(CC)n5)c4=O)CC3)c1)=N[C@@H]1CCSC[C@H]21 [Example 35, 3-[1-({3-[(4aR,10bR)-9-ethoxy-8-methoxy-3,4,4a,10b-tetrahydro-1H-thiopyrano[4,3-c]isoquinolin-6-yl]phenyl}carbonyl)piperidin-4-yl]-1-[(2-ethyl-2H-tetrazol-5-yl)methyl]-6-(5-fluoro-2-methoxyphenyl)thieno[3,2-d]pyrimidine-2,4(1H,3H)-dione] | 1 to 10 | < 10

Other lines, results leading:

Row | IC50 (PDE4B1) [nM] | IC50 (human PDE5) [nM] | Structure (SMILES)
5 | < 1 | > 100 | CCCOCc1noc(Cn2c(=O)n(C3CCN(C(=O)c4ccc(C5=N[C@@H]6CCSC[C@@H]6c6cc(OCC)c(OC)cc65)cc4)CC3)c(=O)c3sc(-c4ccccc4)cc32)n1 [Example 51, 3-[1-({4-[(4aR,10bR)-9-ethoxy-8-methoxy-3,4,4a,10b-tetrahydro-1H-thiopyrano[4,3-c]isoquinolin-6-yl]phenyl}carbonyl)piperidin-4-yl]-6-phenyl-1-{[3-(propoxymethyl)-1,2,4-oxadiazol-5-yl]methyl}thieno[3,2-d]pyrimidine-2,4(1H,3H)-dione]
6 | > 10 | < 10 | CCOc1cc2c(cc1OC)C(c1ccc(C(=O)N3CCC(n4c(=O)c5sc(-c6ccc(F)cc6)cc5n(Cc5nnn(CC)n5)c4=O)CC3)cc1)=N[C@@H]1CCSC[C@H]21 [Example 40, 3-[1-({4-[(4aR,10bR)-9-ethoxy-8-methoxy-3,4,4a,10b-tetrahydro-1H-thiopyrano[4,3-c]isoquinolin-6-yl]phenyl}carbonyl)piperidin-4-yl]-1-[(2-ethyl-2H-tetrazol-5-yl)methyl]-6-(4-fluorophenyl)thieno[3,2-d]pyrimidine-2,4(1H,3H)-dione]
7 | 1 to 10 | 10 to 100 | CCOc1cc2c(cc1OC)C(c1ccc(C(=O)N3CCC(n4c(=O)c5sc(-c6ccccc6)cc5n(Cn5nnc(CC)n5)c4=O)CC3)cc1)=N[C@@H]1CCSC[C@H]21 [Example 57, 3-[1-({4-[(4aR,10bR)-9-ethoxy-8-methoxy-3,4,4a,10b-tetrahydro-1H-thiopyrano[4,3-c]isoquinolin-6-yl]phenyl}carbonyl)piperidin-4-yl]-1-[(5-ethyl-2H-tetrazol-2-yl)methyl]-6-phenylthieno[3,2-d]pyrimidine-2,4(1H,3H)-dione]
8 | 1 to 10 | 10 to 100 | CCOc1cc2c(cc1OC)C(c1ccc(C(=O)N3CCC(n4c(=O)c5sc(-c6ccc(F)cc6OC)cc5n(Cc5nc(CC)no5)c4=O)CC3)cc1)=N[C@@H]1CCSC[C@H]21 [Example 43, 3-[1-({4-[(4aR,10bR)-9-ethoxy-8-methoxy-3,4,4a,10b-tetrahydro-1H-thiopyrano[4,3-c]isoquinolin-6-yl]phenyl}carbonyl)piperidin-4-yl]-1-[(3-ethyl-1,2,4-oxadiazol-5-yl)methyl]-6-(4-fluoro-2-methoxyphenyl)thieno[3,2-d]pyrimidine-2,4(1H,3H)-dione]
9 | 1 to 10 | < 10 | CCOc1cc2c(cc1OC)C(c1cccc(C(=O)N3CCC(n4c(=O)c5sc(-c6ccc(F)cc6OC)cc5n(Cc5nc(COC)no5)c4=O)CC3)c1)=N[C@@H]1CCSC[C@H]21 [Example 45, 3-[1-({3-[(4aR,10bR)-9-ethoxy-8-methoxy-3,4,4a,10b-tetrahydro-1H-thiopyrano[4,3-c]isoquinolin-6-yl]phenyl}carbonyl)piperidin-4-yl]-6-(4-fluoro-2-methoxyphenyl)-1-{[3-(methoxymethyl)-1,2,4-oxadiazol-5-yl]methyl}thieno[3,2-d]pyrimidine-2,4(1H,3H)-dione]
